Results on 12 compounds are retold here after PubChem BioAssay (NCI).

Among the test systems are A498 renal; 786-0 renal; MCF7 breast; SNB-75 CNS; M14 melanoma; MALME-3M melanoma; SK-MEL-5 melanoma; OVCAR-5 ovarian; SF-268 CNS; NCI-H460 lung.
Common to all, as to test: growth of human tumour cells (NCI), 48 h

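96-well plates; 48 h exposure; 5 concentrations. Endpoints by linear interpolation between flanking doses. Not reached: highest tested concentration assigned. GI50 is the concentration that inhibits growth by half. The concentration for full growth arrest is given as TGI.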 Bounds are passed on as bounds.

As for `O=c1oc2ccc(-c3ccc(F)cc3F)cc2c(=O)n1-c1cccc(C(F)(F)F)c1`, the GI50 in the experiment on A498 renal was 0.21 µM; in the experiment with 786-0 renal, 2.47 µM; in the experiment on MCF7 breast, 3.22 µM; in the experiment on SNB-75 CNS, 1.33 µM; in the experiment on M14 melanoma it was 0.525 µM; in the experiment on MALME-3M melanoma, 0.785 µM. The GI50 with SK-MEL-5 melanoma is 0.44 µM; in the experiment with OVCAR-5 ovarian, 4.11 µM; in the experiment on SF-268 CNS, 1.23 µM; in the experiment with NCI-H460 lung it was 0.999 µM. The TGI in the experiment with A498 renal is 0.888 µM; in the experiment with 786-0 renal, 6.5 µM; in the experiment on MCF7 breast it was above 100 µM; in the experiment on SNB-75 CNS, 3.78 µM; in the experiment on M14 melanoma it was 4.21 µM; with MALME-3M melanoma, 4.74 µM. The TGI in the experiment with SK-MEL-5 melanoma is 1.71 µM; with OVCAR-5 ovarian, above 100 µM; with SF-268 CNS, 8.21 µM; in the experiment with NCI-H460 lung it was 10.3 µM.
For the compound `O=C(c1ccco1)c1c(C(F)(F)F)nc2ccc(Cl)cc2[n+]1[O-]`, the GI50 in the experiment with A498 renal was 23.1 µM; with 786-0 renal, above 100 µM; with MCF7 breast it was above 100 µM; in the experiment on SNB-75 CNS, 54 µM; with M14 melanoma, above 100 µM; in the experiment with MALME-3M melanoma, above 100 µM. Moreover, the GI50 was 17.5 µM in the experiment with SK-MEL-5 melanoma, above 100 µM in the experiment on OVCAR-5 ovarian, above 100 µM in the experiment with SF-268 CNS and above 100 µM in the experiment on NCI-H460 lung. Further, the TGI in the experiment with A498 renal is 68 µM; in the experiment on 786-0 renal it was above 100 µM; in the experiment on MCF7 breast, above 100 µM; in the experiment with SNB-75 CNS, above 100 µM; in the experiment on M14 melanoma it was above 100 µM; in the experiment with MALME-3M melanoma, above 100 µM. Further, the TGI in the experiment with SK-MEL-5 melanoma is 31.6 µM; with OVCAR-5 ovarian it was above 100 µM; in the experiment with SF-268 CNS, above 100 µM; in the experiment on NCI-H460 lung it was above 100 µM.
For the compound `CN(C)CC[C@H](CSc1ccccc1)Nc1ccc(S(=O)(=O)NC(=O)c2ccc(N3CCN(Cc4ccccc4-c4ccc(Cl)cc4)CC3)cc2)cc1[N+](=O)[O-]`, the GI50 was 0.0971 µM with A498 renal; 3.6 µM in the experiment on 786-0 renal; 3 µM with MCF7 breast; 6.09 µM in the experiment on SNB-75 CNS; 4.17 µM with M14 melanoma; 3.11 µM with MALME-3M melanoma. The GI50 is 1.56 µM with SK-MEL-5 melanoma, 5.07 µM with OVCAR-5 ovarian, 5.84 µM in the experiment on SF-268 CNS and 3.52 µM in the experiment on NCI-H460 lung. Also, the TGI with A498 renal was 0.818 µM; with 786-0 renal, 15.1 µM; in the experiment with MCF7 breast, above 41.3 µM; with SNB-75 CNS, above 100 µM; with M14 melanoma, 29.8 µM; in the experiment with MALME-3M melanoma it was 36.3 µM. The TGI in the experiment on SK-MEL-5 melanoma was 3.23 µM; in the experiment on OVCAR-5 ovarian it was 41.1 µM; in the experiment with SF-268 CNS, above 100 µM; in the experiment with NCI-H460 lung, 23.9 µM.
As for `COc1ccc(-c2ccc(=O)oc2C#Cc2cc(OC)c(OC)c(OC)c2)cc1O`, the GI50 was 2.36 µM with A498 renal; 1.18 µM in the experiment on 786-0 renal; 0.12 µM in the experiment on MCF7 breast; 0.167 µM with SNB-75 CNS; 0.521 µM in the experiment with M14 melanoma; 2.66 µM with MALME-3M melanoma. Besides, the GI50 in the experiment on SK-MEL-5 melanoma is 0.183 µM; with OVCAR-5 ovarian it was 2.49 µM; in the experiment on SF-268 CNS, 0.558 µM; in the experiment with NCI-H460 lung, 0.287 µM. Also, the TGI in the experiment with A498 renal is 24.9 µM; with 786-0 renal, above 100 µM; in the experiment with MCF7 breast it was above 100 µM; with SNB-75 CNS, 2.92 µM; in the experiment on M14 melanoma, above 100 µM; with MALME-3M melanoma it was above 92.6 µM. Moreover, the TGI is 1.16 µM in the experiment on SK-MEL-5 melanoma, 33.9 µM in the experiment with OVCAR-5 ovarian, above 100 µM in the experiment with SF-268 CNS and 4.59 µM with NCI-H460 lung.
On to `CN1CCN(c2ccc(Nc3cc(-c4cccc(-n5ccc6cc(C7CC7)cc(F)c6c5=O)c4CO)cn(C)c3=O)nc2)CC1`, for which the GI50 is 2.51 µM in the experiment with A498 renal; 2.01 µM in the experiment on 786-0 renal; 3.24 µM in the experiment on MCF7 breast; 1.33 µM in the experiment with SNB-75 CNS; 2.69 µM in the experiment with M14 melanoma; 2.25 µM with MALME-3M melanoma. For the same compound, the GI50 with SK-MEL-5 melanoma is 11.9 µM; in the experiment on OVCAR-5 ovarian, 2.82 µM; in the experiment with SF-268 CNS, 5.58 µM; with NCI-H460 lung it was 3.83 µM. Moreover, the TGI in the experiment with A498 renal turned out to be 9.26 µM; in the experiment on 786-0 renal it was 4.44 µM; in the experiment on MCF7 breast, 18.6 µM; in the experiment with SNB-75 CNS, 2.96 µM; with M14 melanoma it was 8.19 µM; with MALME-3M melanoma, 4.79 µM. In addition, the TGI stood at 31.1 µM in the experiment with SK-MEL-5 melanoma, 9.75 µM in the experiment on OVCAR-5 ovarian, 20.9 µM in the experiment on SF-268 CNS and 15.7 µM in the experiment on NCI-H460 lung.
Regarding `CCN(CC)CCNc1nc(N)c(C#N)c(C#N)c1C#N`, the TGI in the experiment on A498 renal, with 786-0 renal, in the experiment with MCF7 breast, in the experiment on SNB-75 CNS, in the experiment on M14 melanoma and with MALME-3M melanoma was above 10 µM in each case. Also, the TGI in the experiment on SK-MEL-5 melanoma, in the experiment with OVCAR-5 ovarian, with SF-268 CNS and with NCI-H460 lung was above 10 µM in each case.
For `O=C(/C=C/c1ccc[nH]1)c1ccc(-n2ccc(C(F)(F)F)n2)cc1`, the GI50 in the experiment with A498 renal is above 100 µM; in the experiment with 786-0 renal, 6.17 µM; in the experiment with MCF7 breast, above 82.2 µM; in the experiment on SNB-75 CNS, 0.877 µM; with M14 melanoma it was above 100 µM; in the experiment on MALME-3M melanoma, above 100 µM. Moreover, the GI50 is above 100 µM with SK-MEL-5 melanoma, above 100 µM in the experiment on OVCAR-5 ovarian, 3.8 µM in the experiment with SF-268 CNS and 84.2 µM in the experiment with NCI-H460 lung. Also, the TGI with A498 renal is above 100 µM; in the experiment on 786-0 renal, above 100 µM; in the experiment on MCF7 breast, above 100 µM; in the experiment on SNB-75 CNS, 4.37 µM; in the experiment on M14 melanoma it was above 100 µM; in the experiment with MALME-3M melanoma it was above 100 µM. Also, the TGI in the experiment with SK-MEL-5 melanoma, in the experiment on OVCAR-5 ovarian, in the experiment on SF-268 CNS and in the experiment on NCI-H460 lung was above 100 µM in each case.
Take `COC(=O)[C@]12CC[C@@H](C)[C@H](C)[C@@H]1C1=CC[C@@H]3[C@@]4(C)C[C@@H](O)[C@H](O)[C@@](C)(CO)C4=CC[C@@]3(C)[C@]1(C)CC2`: the GI50 with A498 renal was 19 µM; in the experiment on 786-0 renal, 18.5 µM; with MCF7 breast, 14.2 µM; with SNB-75 CNS it was 14.3 µM; in the experiment with M14 melanoma, 17.5 µM; in the experiment with MALME-3M melanoma, 17.5 µM. For the same compound, the GI50 was 12.8 µM in the experiment on SK-MEL-5 melanoma, 18.3 µM with OVCAR-5 ovarian, 17.4 µM in the experiment on SF-268 CNS and 17.1 µM in the experiment with NCI-H460 lung. Besides, the TGI in the experiment with A498 renal was determined as 34 µM; with 786-0 renal it was 34.5 µM; in the experiment on MCF7 breast, 31.2 µM; with SNB-75 CNS, 28 µM; with M14 melanoma, 33.6 µM; in the experiment on MALME-3M melanoma, 31.3 µM. Also, the TGI is 27.3 µM in the experiment with SK-MEL-5 melanoma, 35.3 µM with OVCAR-5 ovarian, 34.8 µM in the experiment with SF-268 CNS and 33.8 µM in the experiment with NCI-H460 lung.
In the case of `Cc1c(N(C)C)ccc2c(=O)c3cccc(CC(=O)O)c3oc12`, the TGI in the experiment with A498 renal, with 786-0 renal, with MCF7 breast, in the experiment on SNB-75 CNS, with M14 melanoma and in the experiment with MALME-3M melanoma was above 100 µM throughout. Moreover, the TGI in the experiment with SK-MEL-5 melanoma, in the experiment on OVCAR-5 ovarian, in the experiment on SF-268 CNS and in the experiment with NCI-H460 lung was above 100 µM in each case.
With `CCC[CH2][Sn]([CH2]CCC)([O]C(=O)c1ccc(OC)c(OC)c1OC)[O][Sn]([CH2]CCC)([CH2]CCC)[O]C(=O)c1ccc(OC)c(OC)c1OC`, the GI50 in the experiment with A498 renal was 0.284 µM; in the experiment on 786-0 renal, 0.176 µM; with MCF7 breast, 0.133 µM; with SNB-75 CNS, 0.177 µM; in the experiment with M14 melanoma it was 0.267 µM; with MALME-3M melanoma, 0.168 µM. The GI50 was 0.604 µM with SK-MEL-5 melanoma, 1.52 µM in the experiment with OVCAR-5 ovarian, 0.187 µM in the experiment with SF-268 CNS and 0.895 µM in the experiment with NCI-H460 lung. The TGI came out at 1.25 µM in the experiment with A498 renal; 0.456 µM with 786-0 renal; 1.28 µM with MCF7 breast; 0.744 µM with SNB-75 CNS; 0.583 µM in the experiment on M14 melanoma; 0.757 µM in the experiment with MALME-3M melanoma. In addition, the TGI in the experiment with SK-MEL-5 melanoma stood at 1.81 µM; with OVCAR-5 ovarian it was 2.85 µM; with SF-268 CNS it was 0.842 µM; in the experiment on NCI-H460 lung, 2.55 µM.
For `O=c1c(F)cn(Cc2ccc(C34CC5CC(CC(C5)C3)C4)c(O)c2)c(=O)n1Cc1ccc(C23CC4CC(CC(C4)C2)C3)c(O)c1`, the GI50 with A498 renal was 14.2 µM; in the experiment with 786-0 renal, 11.8 µM; in the experiment with MCF7 breast it was 9.83 µM; in the experiment on SNB-75 CNS, 15.1 µM; in the experiment with M14 melanoma it was 18.4 µM; in the experiment with MALME-3M melanoma it was 14.8 µM. The GI50 in the experiment with SK-MEL-5 melanoma is 13.9 µM; in the experiment on OVCAR-5 ovarian, 13.5 µM; in the experiment on SF-268 CNS, 12.8 µM; with NCI-H460 lung it was 9.76 µM. The TGI in the experiment on A498 renal stood at 27.5 µM; with 786-0 renal, 28.3 µM; with MCF7 breast it was 30.6 µM; in the experiment on SNB-75 CNS it was 30 µM; in the experiment with M14 melanoma, 45.3 µM; in the experiment with MALME-3M melanoma, 29.2 µM. Also, the TGI amounted to 27 µM in the experiment on SK-MEL-5 melanoma, 28.1 µM with OVCAR-5 ovarian, 32.6 µM in the experiment on SF-268 CNS and 37.2 µM in the experiment with NCI-H460 lung.
Consider `Cc1nc(Nc2cccnc2)sc1C(=O)/C=C/c1ccc(F)cc1`, for which the GI50 with A498 renal is 7.61 µM; with 786-0 renal it was 2.94 µM; in the experiment with MCF7 breast it was 2.29 µM; with SNB-75 CNS, 3.42 µM; in the experiment on M14 melanoma, 3.02 µM; in the experiment with MALME-3M melanoma it was 5.55 µM. Moreover, the GI50 with SK-MEL-5 melanoma was 3.64 µM; in the experiment on OVCAR-5 ovarian it was 2.78 µM; in the experiment with SF-268 CNS it was 3.57 µM; in the experiment with NCI-H460 lung it was 2.68 µM. Moreover, the TGI was 42.7 µM in the experiment with A498 renal; 19.4 µM in the experiment with 786-0 renal; above 100 µM in the experiment on MCF7 breast; 67.1 µM in the experiment with SNB-75 CNS; 12.9 µM in the experiment on M14 melanoma; 40 µM with MALME-3M melanoma. For the same compound, the TGI in the experiment on SK-MEL-5 melanoma came to 13.4 µM; in the experiment on OVCAR-5 ovarian, 23 µM; with SF-268 CNS it was 31.9 µM; with NCI-H460 lung it was 6.9 µM.
